Results reported in patent publication US5389621A, “Method of enhancing the anticoagulant effects of aspirin using salicylamide” (University of Medicine and Dentistry of New Jersey, priority 1994, dated 1995).

Legend:
platelet cyclooxygenase = test: Thromboxane B2 synthesis by arachidonic acid-stimulated platelet-rich plasma in vitro; type: cell-based, male Sprague-Dawley rats; conditions: ASA/SA 1:1 w/w, TX B2
Text: Was done manually by the method of Brecher and Conkite (1953) using phase contrast microscopy (Balplan) with a 40×annulus, 40×phase objective, and 10×ocular (total of 400×), and a special platelet counting chamber (American Optical Corp., Buffalo, N.Y.) and dilution with 1% ammonium oxalate. The platelet-rich plasma (PRP) was adjusted by dilution with platelet-poor plasma (PPP) to give a final count of 1×10^9 platelets/ml.
Arachidonic acid (as the sodium salt, >99.0% pure) was obtained from Sigma Chemical Co. and a stock solution of 34.5 mM was prepared by dissolving in isotonic saline. 20 μl of the stock solution were added to 440 μl of PRP (400 μl of PRP and 20 or 40 μl of treatment solution ±20 μl of saline) to make a 23 fold dilution. The final concentration of AA in PRP was 1.5 mM.
EDTA solution was prepared by adding 2 gm disodium EDTA and 0.8 gm NaCl and were adjusted to pH 7.4 with NaOH and made up to a final volume of 100 ml in distilled water. ASA solution was prepared by dissolving 30 mg in 10 ml of isotonic saline to make a solution of 3 mg/ml.
950 μl of EDTA solution were added to 50 μl of ASA solution and the mixture was vortexed. 40 μl of the mixture were pipetted in the experiment test tubes to stop further prostaglandin production.
Platelet-rich plasma (PRP) was prepared from male Sprague-Dawley rats (300-325 gm). The blood was collected by heart puncture and added to 3.8% citrate solution, final volume 9:1, blood:citrate. The blood was centrifuged at 120×g (750 rpm) for 15 minutes at 4° C. to obtain PRP. The rest of the blood was spun at 1800×g (3000 rpm) for 10 minutes to get the PPP which was used later for dilution of the PRP to achieve the final desired platelet concentration of 1×10^9 platelets/ml. 400 μl of PRP, containing 4×10^8 platelets, were pipetted in polypropylene tubes and the following treatment groups were studied:
1--Baseline (-ve control) tubes: to measure the baseline production of Thromboxane B2 (TX B2) by platelets during the time of the experiment, 60 μl of saline were added and left for 10 minutes in a shaking water bath at 37° C.
2--Control (+ve control) tubes: 20 μl of arachidonic acid (AA) solution were added to achieve a final concentration of 1.5 mM and the tubes were incubated […].
3--ASA and/or SAM treatment tubes: 20 μl of ASA (final conc. 130 μg/ml), 20 μl of SAM solution (final conc. 40 μg/ml), 20 μl of ASA/SAM(L) solution (final conc. 130/40 μg/ml) or 20 μl of ASA/SAM(H) solution (final conc. 130/120 μg/ml) were added to PRP together with 20 μl of saline for 10 minutes, then 20 μl of AA solution were added for additional 10 minutes.
4--ASA/SA treatment: 20 μl of ASA/SA solution (final conc. 130/130 μg/ml) and 20 μl of saline were added to the tubes for 10 minutes before AA was added for further 10 minutes.
5--ASA/SA/SAM treatment: 20 μl of ASA/SA solution (130/130 μg/ml as final conc.) and 20 μl of […] in low (L) or high (H) concentrations (40 or 120 μg/ml, final conc.) were added simultaneously to PRP followed 10 minutes later by AA.
6--SAM/SA treatment: 20 μl of SAM solution (final conc. 40 μg/ml) and 20 μl of SA solution (final conc. 130 μg/ml) were added followed 10 minutes later by AA for additional 10 minutes.
Also, the effect of SAM when administered first to the platelets followed 10 minutes later by ASA was studied to know whether the effect of SAM is time dependent or not.
During the treatment, all the tubes were incubated at 37° C. in a shaking water bath. Ten minutes after the addition of AA, or saline (for the control tubes), the experiment was ended by addition of 40 μl of EDTA/ASA solution. The tubes were immediately centrifuged at 1800×g for 15 minutes at 4° C. to precipitate the platelets and 100 μl of the supernatant were obtained for estimation of their content of TX B2 using a specific radioimmunoassay (Amersham International) (vide infra).
Radioimmunoassay Procedure for Measurement of Thromboxane B2 and 6-keto PG F1alpha […]

[1] = cited from earlier work
[2] = test system: lyso-PAF:acetyl-CoA acetyltransferase; conditions: cited from earlier work
cyclooxygenase = conditions: in vitro; cited from earlier work

## O=C(O)c1ccccc1O [SA, salicylic acid]
Platelet cyclooxygenase
  Antagonism of ASA effect by SA: ~ 70%
[1]; humans and rats
  Pharmacokinetics linearity: non-linear and dose-dependent
[1]; rat, in vivo
  Distribution and plasma albumin binding: concentration-dependent distribution and plasma albumin binding
[2]
  Effect on lyso-PAF:acetyl-CoA acetyltransferase: inhibitory effect
cyclooxygenase
  Effect on cyclooxygenase: does not have the capacity to inhibit cyclooxygenase
